Patent US8247407B2, priority 2007, dated 2012)
Several values for one entry are separate records, joined by “and”; a condition that tells them apart may be missing. Equal entries are not always repeated. Structures can show the parent of a compound that is named as a salt.

Columns and labels:
patients = conditions: cited from earlier work
[1] = system: rats with alloxan diabetes; assay: Hypoglycemic activity, alloxan diabetes model in rats (Example 1); assay type: in vivo, rat
Experimental: The pharmaceutical compositions for determination of anti-diabetic action had the following composition: active compound—1 g, potato starch—1 g, water—100 ml.
(§1) The comparison of anti-diabetic action of compounds was carried out using a standard model of alloxan diabetes and metmorphin as a comparative drug. The alloxan diabetes was induced by a single subcutaneous injection of water solution of alloxan hydrate (ICN Biomedicals, USA) at a dose of 150 mg/kg to rats weighting 180-200 g that have fasted for 24 hours. The following animal groups were studied: intact rats, diabetic non-treated rats, diabetic rats receiving Polfa-Kutno Ltd.″ metmorphin daily (for 23 days, 200 mg/kg); diabetic rats receiving daily (for 20 days) the abovementioned pharmaceutical compositions containing, as an active components, the compounds described in this invention: MC-200-MC-225. The compounds were administered intragastrically once a day in starch gel at a dose of 50 mg/kg rat weight.
(§2) The experimental drug doses were selected assuming the expected therapeutic doses for man and previously determined toxic doses (LD50 of studied compounds was approximately 500-1,000 mg/kg). The metmorphin dose for rats was extrapolated from the therapeutic dose for man. Drug administration was started on the third day after alloxan injection when blood glucose level increased approximately 3-fold as compared to control value. Each group consisted of 20 animals of both genders.

[2] = system: white rats with experimental diabetes (alloxan diabetes); assay: Anti-diabetic, hypolipidemic and hypocholesteremic activity, alloxan diabetes model in rats (Example 2); assay type: in vivo, rat; conditions: compounds 50 mg/kg, metmorphin 200 mg/kg daily
Experimental: as §1, §2
Pharmaceutical compositions for determination of anti-diabetic action had the same composition as that given in Example I.
The comparison of the anti-diabetic action of compounds was carried out using a standard model of alloxan diabetes, as described in Example I, and metmorphin as a comparative drug.
In the course of experiment, the following parameters were recorded: animal general condition, water consumption, body mass, levels of glucose, total lipids, tri-glycerides, serum blood cholesterol, and glycosylated hemoglobin, using the generally accepted techniques (Laboratory methods of studies in clinical practice, V. V. Menshikov, Ed., Moscow, “Medicine”, 1987).

[3] = system: pancreatic Langerhans islets of rats with alloxan diabetes; assay: Histological examination of the pancreas of alloxan-diabetic rats (Example 3); assay type: in vivo, rat; conditions: in 20 days after treatment; for Pancreatic Langerhans islet structure, haematoxylin-eosin staining: magnification 40×7; for Pancreatic Langerhans islet structure, aldehyde fuchsine staining: magnification 20×7
Experimental: Histological examination of pancreatic structure was carried out using the haematoxylin-eosin and aldehyde fuchsine staining of pancreatic sections using standard techniques.

[4] = diabetic rats' blood, in 10 days, compounds 50 mg/kg intragastrically once a day in starch gel, metmorphin 200 mg/kg daily
[5] = diabetic rats' blood, in 20 days, compounds 50 mg/kg intragastrically once a day in starch gel, metmorphin 200 mg/kg daily

| SMILES | Glucose content, mmol/l, in 10 days ([1]; rat, in vivo) [mmol/L] | Body mass ([2]; in 10 days) [g] | Cholesterol ([2]; in 10 days) | Daily water consumption ([2]; in 10 days) [mL] | Glucose ([2]; in 10 days) | Glycosylated hemoglobin ([2]; in 10 days) | Percent of survived rats ([2]; in 10 days) [%] | Total lipids ([2]; in 10 days) | Tri-glycerides ([2]; in 10 days) [mmol/L] | β-lipoproteins ([2]; in 10 days) | Body mass ([2]; in 20 days) [g] | Cholesterol ([2]; in 20 days) | Daily water consumption ([2]; in 20 days) | Glucose ([2]; in 20 days) | Glycosylated hemoglobin ([2]; in 20 days) | Percent of survived rats ([2]; in 20 days) [%] | Total lipids ([2]; in 20 days) | Tri-glycerides ([2]; in 20 days) | β-lipoproteins ([2]; in 20 days) | Pancreatic Langerhans islet structure, haematoxylin-eosin staining [3] | also measured |
| --- | --- | --- | --- | --- | --- | --- | --- | --- | --- | --- | --- | --- | --- | --- | --- | --- | --- | --- | --- | --- | --- |
| CN(CCOc1ccc(CC2SC(=O)NC2=O)cc1)c1ccccn1 (stereo not drawn) [Avandia] |  |  |  |  |  |  |  |  |  |  |  |  |  |  |  |  |  |  |  |  | Fatality rate after infarction, higher than untreated group (patients; Avandia group as compared to the untreated group): 64%; Probability of myocardial infarction, higher than untreated group (patients; patients who took Avandia as compared to the untreated group): 43% |
| CCOC(=O)c1c(CN2CCCC2)n(C)c2cc(-c3cccnc3)c(O)cc12 [MC-207, 1-methyl-2-pyrrolidinyl-1-methyl-3-carbethoxy-5-hydroxy-6-(pyridine-3-yl)indole] | 5.5 ± 0.2 | 186 ± 10 | 2.5 ± 0.3 mmol/L | 24 ± 5 | 5.5 ± 0.3 mmol/L | 5.1 ± 0.3 mol % | 100 | 10.2 ± 0.5 g/L | 2.5 ± 0.2 | 2.0 ± 0.2 g/L | 182 ± 10 | 1.5 ± 0.2 mmol/L | 20 ± 5 mL | 5.0 ± 0.2 mmol/L | 5.0 ± 0.3 mol % | 90 | 10.2 ± 0.3 g/L | 1.8 ± 0.2 mmol/L | 2.1 ± 0.2 g/L |  | Glucose content, mmol/l, in 20 days ([1]; rat, in vivo): 5.0 ± 0.3 mmol/L |
| CCOC(=O)c1c(CSc2ccccc2)n(C)c2cc(Br)c(O)c(CN(C)C)c12 [MC-200, 1-methyl-2-phenylthiomethyl-3-carbethoxy-4-dimethylaminomethyl-5-hydroxy-6-bromoindole hydrochloride] |  | 180 ± 5 | 2.7 ± 0.4 mmol/L | 20 ± 3 | 5.6 ± 0.2 mmol/L | 6.2 ± 0.3 mol % | 100 | 10.2 ± 0.5 g/L | 2.5 ± 0.2 | 2.0 ± 0.2 g/L | 182 ± 10 | 1.5 ± 0.2 mmol/L | 24 ± 6 mL | 5.4 ± 0.3 mmol/L | 6.5 ± 05 mol % | 75 | 10.6 ± 1.0 g/L | 1.5 ± 0.2 mmol/L | 2.1 ± 0.3 g/L | Restoration of pancreatic Langerhans islet | Glucose content, mmol/l, in 10 days [1, 4]: 5.6 ± 0.2 mmol/L; Glucose content, mmol/l, in 20 days [1, 5]: 5.4 ± 0.3 mmol/L |
| CCOC(=O)c1c(CSc2ccc3ccccc3c2)n(C)c2cc(Br)c(O)c(CN(C)C)c12 [MC-217, 1-methyl-2-β-naphthylthiomethyl-3-carbethoxy-4-dimethylaminomethyl-5-hydroxy-6-bromoindole hydrochloride] | 5.2 ± 0.2 | 190 ± 10 | 2.4 ± 0.2 mmol/L | 25 ± 5 | 5.2 ± 0.2 mmol/L | 5.2 ± 0.2 mol % | 100 | 10.4 ± 0.5 g/L | 2.3 ± 0.2 | 2.1 ± 0.2 g/L | 185 ± 10 | 1.4 ± 0.2 mmol/L | 22 ± 5 mL | 4.8 ± 0.1 mmol/L | 4.9 ± 0.3 mol % | 100 | 10.2 ± 0.3 g/L | 1.5 ± 0.2 mmol/L | 2.1 ± 0.2 g/L | Restoration of pancreatic Langerhans islet | Glucose content, mmol/l, in 20 days ([1]; rat, in vivo): 4.8 ± 0.3 mmol/L; Pancreatic Langerhans islet structure, aldehyde fuchsine staining [3]: Restoration of pancreatic Langerhans islet |
| CN(C)C(=N)N=C(N)N [Metmorphin, reference compound] |  | 185 ± 5 | 2.6 ± 0.3 mmol/L and 2.4 ± 0.3 mmol/L | 25 ± 3 | 6.6 ± 0.3 mmol/L and 6.4 ± 0.3 mmol/L | 5.1 ± 0.1 mol % and 5.0 ± 0.1 mol % | 100 | 10.6 ± 0.6 g/L and 10.5 ± 0.5 g/L | 2.6 ± 0.1 | 2.2 ± 0.3 g/L and 2.2 ± 0.4 g/L | 180 ± 5 | 1.7 ± 0.3 mmol/L and 1.6 ± 0.3 mmol/L | 20 ± 3 mL and 19 ± 3 mL | 6.4 ± 0.2 mmol/L and 6.3 ± 0.2 mmol/L | 6.2 ± 0.2 mol % and 6.1 ± 0.2 mol % | 80 | 11.6 ± 1.2 g/L and 11.5 ± 1.0 g/L | 1.6 ± 0.1 mmol/L and 1.6 ± 0.2 mmol/L | 2.2 ± 0.3 g/L and 2.2 ± 0.4 g/L | Restoration of pancreatic Langerhans islet | Glucose content, mmol/l, in 10 days [1, 4]: 6.6 ± 0.3 mmol/L; Glucose content, mmol/l, in 20 days [1, 5]: 6.4 ± 0.3 mmol/L; Pancreatic Langerhans islet structure, aldehyde fuchsine staining [3]: Restoration of pancreatic Langerhans islet |
